# Measured values from patent US6451807B1, “Methods of treating sexual dysfunction in an individual suffering from a retinal disease, class 1 congestive heart failure, or myocardial infarction using a PDE5 inhibitor” (Lilly Icos, LLC., priority 1999, dated 2002).
# Columns and labels:
# Type in all cases: in vivo, human
# [1] = system: patients in need thereof (erectile function); assay: Two randomized, double-blinded placebo controlled studies, daily and on demand dosing (Example 6)
# Protocol: In two randomized, double-blinded placebo controlled studies, the compound of structural formula (I), at a range of doses in both daily dosing and for on demand therapy for sexual encounters and intercourse in the home setting, was administered to patients in need thereof.
# Erectile function was assessed by the International Index of Erectile Function (IIEF) (Rosen et al., Urology, 49, pp. 822-830 (1997)), diaries of sexual attempts, and a global satisfaction question.
# clinical study subjects = assay: Combined clinical studies, treatment-emergent adverse events
# Excerpt: However, it also was observed from the combined clinical studies that the percent of treatment-emergent adverse events increased with an increasing unit dose of the compound of structural formula (I), as illustrated in the following table.
# healthy male volunteers = assay: Clinical pharmacology drug interaction study with short-acting nitrates (Example 5)
# Protocol: This study was a randomized, double-blind, placebo-controlled, two-way crossover design clinical pharmacology drug interaction study that evaluated the hemodynamic effects of concomitant administration of a selective PDE5 inhibitor Study Drug (i.e., the compound of structural formula (I)) and short-acting nitrates on healthy male volunteers. In this study, the subjects received either the Study Drug at a dose of 10 mg or a placebo, daily for seven days. On the sixth or seventh day, the subjects received sublingual nitroglycerin (0.4 mg) while supine on a tilt table. The nitroglycerin was administered 3 hours after Study Drug dosing, and all subjects kept the nitroglycerin tablet under their tongue until it completely dissolved. The subjects were tilted to 70° head-up every 5 minutes for a total of 30 minutes with measurement of blood pressure and heart rate. There were no discontinuations among the twenty-two healthy male subjects (ages 19 to 60 years old) that entered this study.
# [2] = unit dose of about 1 to about 20 mg
# [3] = 10 mg daily for seven days, sublingual nitroglycerin 0.4 mg, preliminary analysis
# [4] = 10 mg daily for seven days, preliminary analysis
smiles,measurement,setting,value
"CN1CC(=O)N2[C@H](c3ccc4c(c3)OCO4)c3[nH]c4ccccc4c3C[C@@H]2C1=O [Compound 5, (6R-trans)-6-(1,3-benzodioxol-5-yl)-2,3,6,7,12,12a-hexahydro-2-methylpyrazino[1′,2′:1,6]pyrido[3,4-b]indole-1,4-dione]",efficacy,[1]; 10 mg dose,fully efficacious
same,side effects,[1]; 10 mg dose,minimal side effects (no flushing and no reports of blue vision)
same,efficacy,[1]; doses from 5 to 20 mg,efficacious
same,flushing,[1]; doses from 5 to 20 mg,no flushing
same,vision abnormalities,[1]; doses from 5 to 20 mg,no reports of vision abnormalities
same,"erectile function as assessed by all endpoints (IIEF, diaries of sexual attempts, global satisfaction question)",[1]; in vivo,significantly improved erectile function
same,erectile function,"[1]; on demand and daily dose regimens, doses between 1 and 20 mg",significantly improved erectile function
same,Treatment-Emergent Adverse Events (%): Back Pain,clinical study subjects; unit dose 2 mg,3%
same,Treatment-Emergent Adverse Events (%): Conjunctivitis,clinical study subjects; unit dose 2 mg,0%
same,Treatment-Emergent Adverse Events (%): Dyspepsia,clinical study subjects; unit dose 2 mg,3%
same,Treatment-Emergent Adverse Events (%): Eyelid Edema,clinical study subjects; unit dose 2 mg,0%
same,Treatment-Emergent Adverse Events (%): Flushing,clinical study subjects; unit dose 2 mg,0%
same,Treatment-Emergent Adverse Events (%): Headache,clinical study subjects; unit dose 2 mg,12%
same,Treatment-Emergent Adverse Events (%): Myalgia,clinical study subjects; unit dose 2 mg,0%
same,Treatment-Emergent Adverse Events (%): Rhinitis,clinical study subjects; unit dose 2 mg,7%
same,Treatment-Emergent Adverse Events (%): Vision Abnormalities,clinical study subjects; unit dose 2 mg,0%
same,Treatment-Emergent Adverse Events (%): Back Pain,clinical study subjects; unit dose 5 mg,3%
same,Treatment-Emergent Adverse Events (%): Conjunctivitis,clinical study subjects; unit dose 5 mg,1%
same,Treatment-Emergent Adverse Events (%): Dyspepsia,clinical study subjects; unit dose 5 mg,14%
same,Treatment-Emergent Adverse Events (%): Eyelid Edema,clinical study subjects; unit dose 5 mg,0%
same,Treatment-Emergent Adverse Events (%): Flushing,clinical study subjects; unit dose 5 mg,0%
same,Treatment-Emergent Adverse Events (%): Headache,clinical study subjects; unit dose 5 mg,10%
same,Treatment-Emergent Adverse Events (%): Myalgia,clinical study subjects; unit dose 5 mg,3%
same,Treatment-Emergent Adverse Events (%): Rhinitis,clinical study subjects; unit dose 5 mg,3%
same,Treatment-Emergent Adverse Events (%): Vision Abnormalities,clinical study subjects; unit dose 5 mg,0%
same,Treatment-Emergent Adverse Events (%): Back Pain,clinical study subjects; unit dose 10 mg,15%
same,Treatment-Emergent Adverse Events (%): Conjunctivitis,clinical study subjects; unit dose 10 mg,1%
same,Treatment-Emergent Adverse Events (%): Dyspepsia,clinical study subjects; unit dose 10 mg,13%
same,Treatment-Emergent Adverse Events (%): Eyelid Edema,clinical study subjects; unit dose 10 mg,1%
same,Treatment-Emergent Adverse Events (%): Flushing,clinical study subjects; unit dose 10 mg,<1%
same,Treatment-Emergent Adverse Events (%): Headache,clinical study subjects; unit dose 10 mg,23%
same,Treatment-Emergent Adverse Events (%): Myalgia,clinical study subjects; unit dose 10 mg,9%
same,Treatment-Emergent Adverse Events (%): Rhinitis,clinical study subjects; unit dose 10 mg,4%
same,Treatment-Emergent Adverse Events (%): Vision Abnormalities,clinical study subjects; unit dose 10 mg,0%
same,Treatment-Emergent Adverse Events (%): Back Pain,clinical study subjects; unit dose 25 mg,18%
same,Treatment-Emergent Adverse Events (%): Conjunctivitis,clinical study subjects; unit dose 25 mg,0%
same,Treatment-Emergent Adverse Events (%): Dyspepsia,clinical study subjects; unit dose 25 mg,19%
same,Treatment-Emergent Adverse Events (%): Eyelid Edema,clinical study subjects; unit dose 25 mg,1%
same,Treatment-Emergent Adverse Events (%): Flushing,clinical study subjects; unit dose 25 mg,0%
same,Treatment-Emergent Adverse Events (%): Headache,clinical study subjects; unit dose 25 mg,29%
same,Treatment-Emergent Adverse Events (%): Myalgia,clinical study subjects; unit dose 25 mg,16%
same,Treatment-Emergent Adverse Events (%): Rhinitis,clinical study subjects; unit dose 25 mg,4%
same,Treatment-Emergent Adverse Events (%): Vision Abnormalities,clinical study subjects; unit dose 25 mg,0%
same,Treatment-Emergent Adverse Events (%): Back Pain,clinical study subjects; unit dose 50 mg,24%
same,Treatment-Emergent Adverse Events (%): Conjunctivitis,clinical study subjects; unit dose 50 mg,2%
same,Treatment-Emergent Adverse Events (%): Dyspepsia,clinical study subjects; unit dose 50 mg,20%
same,Treatment-Emergent Adverse Events (%): Eyelid Edema,clinical study subjects; unit dose 50 mg,2%
same,Treatment-Emergent Adverse Events (%): Flushing,clinical study subjects; unit dose 50 mg,3%
same,Treatment-Emergent Adverse Events (%): Headache,clinical study subjects; unit dose 50 mg,34%
same,Treatment-Emergent Adverse Events (%): Myalgia,clinical study subjects; unit dose 50 mg,20%
same,Treatment-Emergent Adverse Events (%): Rhinitis,clinical study subjects; unit dose 50 mg,0%
same,Treatment-Emergent Adverse Events (%): Vision Abnormalities,clinical study subjects; unit dose 50 mg,0%
same,Treatment-Emergent Adverse Events (%): Back Pain,clinical study subjects; unit dose 100 mg,22%
same,Treatment-Emergent Adverse Events (%): Conjunctivitis,clinical study subjects; unit dose 100 mg,5%
same,Treatment-Emergent Adverse Events (%): Dyspepsia,clinical study subjects; unit dose 100 mg,25%
same,Treatment-Emergent Adverse Events (%): Eyelid Edema,clinical study subjects; unit dose 100 mg,3%
same,Treatment-Emergent Adverse Events (%): Flushing,clinical study subjects; unit dose 100 mg,7%
same,Treatment-Emergent Adverse Events (%): Headache,clinical study subjects; unit dose 100 mg,46%
same,Treatment-Emergent Adverse Events (%): Myalgia,clinical study subjects; unit dose 100 mg,29%
same,Treatment-Emergent Adverse Events (%): Rhinitis,clinical study subjects; unit dose 100 mg,2%
same,Treatment-Emergent Adverse Events (%): Vision Abnormalities,clinical study subjects; unit dose 100 mg,0%
same,flushing,clinical study subjects; [2],flushing was essentially eliminated
same,vision abnormalities,clinical study subjects; [2],no vision abnormalities were reported
same,serious adverse events,healthy male volunteers; [3],no serious adverse events
same,tolerability,healthy male volunteers; [3],well tolerated
same,changes in laboratory safety assessments or 12-lead ECGs,healthy male volunteers; [4],no Study Drug-associated changes in laboratory safety assessments or 12-lead ECGs
same,most common adverse events,healthy male volunteers; [4],"headache, dyspepsia, and back pain"
same,effects on mean systolic blood pressure and on mean maximal nitroglycerin-induced decrease in systolic blood pressure,"healthy male volunteers; 10 mg daily, nitroglycerin 0.4 mg 3 hours after dosing, tilt table",minimal effects
same,impact on systolic blood pressure,"healthy male volunteers; human clinical studies, administered in conjunction with organic nitrates",minimal impact on systolic blood pressure
